Data on one substance can be found in US20260115201A1, “POTENTIAL THERAPEUTICS FOR FIBROSIS BY BLOCKING THE INCREASE OF A KEY ENZYME” (THE TEXAS A&M UNIVERSITY SYSTEM, priority 2022, published 2026).

The subject of the experiment is bleomycin treated mice. In words: Bleomycin-induced pulmonary fibrosis in mice (survival, weight, BAL cells, lung collagen). It counts as in vivo, C57BL/6 mice. The protocol:
The successful aspiration of bleomycin into the lungs was confirmed by listening for a crackling noise heard after the aspiration. 100 μl DMSO or 20 mg/kg RK33 in 100 μl DMSO was given to mice by intraperitoneal (IP) injection at day 10, 12, 14, 16, 18 and 20 after bleomycin treatment. Mice were weighed daily, and euthanized using CO2 following NIH guidelines at day 21 after bleomycin aspiration. The experiment was performed in accordance with the recommendations in the Guide for the Care and Use of Laboratory Animals of the National Institutes of Health. The Texas A&M University Animal Use and Care Committee approved the protocol.
The BALs were clarified by centrifugation at 500×g for 10 minutes, and the supernatants were transferred to Eppendorf tubes. The cells collected from BAL were counted, and BAL cytospins were prepared as described in Fibroblasts secrete Slit2 to inhibit fibrocyte differentiation and fibrosis, Proc Natl Acad Sci USA, 2014, 111: 18291-18296. BAL cytospins were fixed and treated with Wright-Giemsa stain (#08711, Polysciences, Inc., Warrington, PA) following Variation of differential cell counts of bronchoalveolar lavage fluid, Archives of pathology & laboratory medicine, 1986, 110(4): 341-343.
After collection of BAL fluid, mouse lungs were inflated with prewarmed Optimal Cutting Temperature (OCT) embedding medium (VWR, Radnor, PA) and then embedded in OCT, frozen on dry ice, and then stored at −80° C. 8-micron cryosections of mouse lungs were mounted on Superfrost Plus® microscope slides (VWR). The sections on the slides were allowed to air-dry for 24-48 hours. Total collagen on the mouse lung sections were stained with picrosirius red as described in Reduction of bleomycin-induced pulmonary fibrosis by serum amyloid P, J Immunol, 2007, 179: 4035-4044. Hydroxyproline in the mouse lung tissue was measured with a hydroxyproline assay as described in Attenuated pulmonary fibrosis in sialidase-3 knockout (Neu3−/−) mice, Am J Physiol Lung Cell Mol Physiol, 2020, 318(1): L165-L179.

Where [1] appears, read: 20 mg/kg IP, day 21 (FIGS. 6A-6B).

“(diimidazo[4,5-d:4′,5′-f]-[1,3]diazepine) [RK33]”: the survival rate result (20 mg/kg IP at day 10, 12, 14, 16, 18 and 20, to day 21 (FIG. 3)) is on record as “dramatically increased”. Further, the body weight recovery entry (20 mg/kg IP at day 10-20 every other day (FIG. 4)) was “improved”. The “total cell number in BAL” value (20 mg/kg IP, day 21 (FIG. 5A)) is “significantly blocked the bleomycin effect”. For the setting “20 mg/kg IP, day 21 (FIG. 7)”, the “total collagen in lungs, hydroxyproline assay” value was “reduced the abnormally high levels of collagen”. Besides, under setting [1], the “difference between lung of bleomycin+RK33 treated mouse and control mouse, picrosirius red collagen” value is given as “no significant difference”; the “total collagen in lungs, picrosirius red staining” value was “reduced the abnormally high levels of collagen”. Also, the “percentage of lymphocytes in BAL” value (20 mg/kg IP, day 21, Wright-Giemsa stain (FIG. 5B)) is listed as “significantly blocked the bleomycin effect”.
